Experimental data published in ChEMBL document CHEMBL1201862, “PubChem BioAssay data set” (2004).
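Grown in 96-well plates, cells were treated for 48 hours with each compound at five concentrations. Insufficient inhibition: endpoint recorded as highest concentration tested. GI50 = concentration required for 50% inhibition of growth.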 Activity calls are given as the source filed them. Rule as the data show it: active = GI50 up to about 1.1 µM and inactive = higher.

Experiments:
Assay in all cases: NCI-60 cell line screen, 48 h
CAKI-1 = test system: CAKI-1
CCRF-CEM = test system: CCRF-CEM
COLO 205 = test system: COLO 205
DU-145 = test system: DU-145
EKVX = test system: EKVX
HOP-62 = test system: HOP-62
HOP-92 = test system: HOP-92
IGROV-1 = test system: IGROV-1
K562 = test system: K562
MOLT-4 = test system: MOLT-4
OVCAR-4 = test system: OVCAR-4
RXF 393 = test system: RXF 393
SF-268 = test system: SF-268
SK-MEL-28 = test system: SK-MEL-28
SN12C = test system: SN12C
UO-31 = test system: UO-31
LOX IMVI = test system: LOX IMVI
OVCAR-3 = test system: OVCAR-3
SF-539 = test system: SF-539
Malme-3M = test system: Malme-3M

Measured: GI50

CCOC(=O)C(NC(=O)OC(C)(C)C)C(=O)OCC
inactive: CAKI-1 > 100 µM | CCRF-CEM > 100 µM | COLO 205 > 100 µM | DU-145 > 100 µM | EKVX > 100 µM | HOP-62 > 100 µM | HOP-92 > 100 µM | IGROV-1 > 100 µM | K562 > 100 µM | MOLT-4 > 100 µM | OVCAR-4 > 100 µM | RXF 393 > 100 µM | SF-268 > 100 µM | SK-MEL-28 > 100 µM | SN12C > 100 µM | UO-31 > 100 µM

COc1c(Br)cc2ccccc2c1-c1c(OC)c(Br)cc2ccccc12
inactive: CAKI-1 > 100 µM | CCRF-CEM > 100 µM | COLO 205 > 100 µM | DU-145 > 100 µM | EKVX > 100 µM | HOP-62 > 100 µM | HOP-92 > 100 µM | IGROV-1 > 100 µM | K562 38.9 µM | LOX IMVI > 100 µM | MOLT-4 6.32 µM | OVCAR-3 > 100 µM | OVCAR-4 > 100 µM | RXF 393 > 100 µM | SF-268 > 100 µM | SF-539 > 100 µM | SK-MEL-28 > 100 µM | UO-31 > 100 µM

CN1Cc2ccccc2S(=O)(=O)n2cccc2C1=O
inactive: CAKI-1 > 100 µM | CCRF-CEM > 100 µM | COLO 205 > 100 µM | DU-145 > 100 µM | EKVX > 100 µM | HOP-62 > 100 µM | HOP-92 > 100 µM | IGROV-1 > 100 µM | K562 > 100 µM | LOX IMVI > 100 µM | MOLT-4 > 100 µM | OVCAR-3 > 100 µM | OVCAR-4 > 100 µM | RXF 393 > 100 µM | SF-539 > 100 µM | SK-MEL-28 > 100 µM | SN12C > 100 µM | UO-31 > 100 µM

COc1cc(OC)c(OC)cc1/C=C/c1cc[n+](C)c2ccccc12
inactive: CAKI-1 > 100 µM | CCRF-CEM 14.8 µM | COLO 205 5.96 µM | DU-145 86.9 µM | EKVX 50.2 µM | HOP-62 4.89 µM | HOP-92 23.9 µM | IGROV-1 40 µM | K562 3.07 µM | MOLT-4 21.2 µM | Malme-3M > 100 µM | OVCAR-4 46.9 µM | RXF 393 53.1 µM | SF-268 51.2 µM | SK-MEL-28 > 100 µM | UO-31 > 100 µM

N#CCCN(CCC#N)c1ccc(C(=N/c2ccc(Cl)cc2)/N=N/c2ccccc2)cc1
inactive: CAKI-1 > 100 µM | CCRF-CEM > 100 µM | COLO 205 48.8 µM | DU-145 88.5 µM | EKVX 99.5 µM | HOP-62 > 100 µM | HOP-92 > 100 µM | IGROV-1 55.7 µM | K562 > 100 µM | MOLT-4 > 100 µM | OVCAR-3 66.7 µM | OVCAR-4 66.5 µM | RXF 393 16.9 µM | SF-268 > 100 µM | SF-539 > 100 µM | SK-MEL-28 > 100 µM | SN12C > 100 µM | UO-31 23.8 µM

Cc1ccc(S(=O)(=O)CC2CCCn3c2c(C#N)c2ccccc23)cc1 (stereo not given)
inactive: CAKI-1 > 100 µM | CCRF-CEM > 100 µM | COLO 205 > 100 µM | DU-145 > 100 µM | EKVX > 100 µM | HOP-62 > 100 µM | HOP-92 > 100 µM | IGROV-1 > 100 µM | K562 > 100 µM | LOX IMVI > 100 µM | MOLT-4 > 100 µM | OVCAR-3 > 100 µM | OVCAR-4 > 100 µM | RXF 393 > 100 µM | SF-268 > 100 µM | SF-539 > 100 µM | SK-MEL-28 > 100 µM | SN12C > 100 µM | UO-31 > 100 µM

CC(Oc1ccccc1Cl)C(=O)NN1C(=O)CSC1c1ccccc1 (stereo not given)
inactive: CAKI-1 > 100 µM | CCRF-CEM > 100 µM | COLO 205 > 100 µM | DU-145 > 100 µM | EKVX > 100 µM | HOP-62 > 100 µM | HOP-92 57.3 µM | IGROV-1 > 100 µM | K562 32.7 µM | LOX IMVI > 100 µM | MOLT-4 29.8 µM | OVCAR-3 > 100 µM | OVCAR-4 > 100 µM | RXF 393 61.2 µM | SF-268 > 100 µM | SF-539 > 100 µM | SK-MEL-28 > 100 µM | SN12C 74.6 µM | UO-31 > 100 µM

C=C(CBr)CCCOCc1ccccc1
inactive: CAKI-1 5.6 µM | CCRF-CEM 26.1 µM | COLO 205 27.6 µM | DU-145 39.1 µM | EKVX 22.9 µM | HOP-62 22.2 µM | HOP-92 21.6 µM | IGROV-1 21.4 µM | K562 40.3 µM | LOX IMVI 30.6 µM | MOLT-4 30.8 µM | Malme-3M 20.7 µM | OVCAR-3 19.1 µM | OVCAR-4 17.6 µM | SF-268 15.8 µM | SF-539 19.5 µM | SK-MEL-28 40.9 µM | SN12C 24.5 µM | UO-31 13.7 µM

Cc1cn(CCCCC2=NCCCN2)c(=O)[nH]c1=O
inactive: CAKI-1 > 15.1 µM | COLO 205 > 31.1 µM | DU-145 > 26.6 µM | EKVX > 29.9 µM | HOP-62 > 46.6 µM | HOP-92 3.66 µM | IGROV-1 > 26.5 µM | K562 > 24.6 µM | LOX IMVI > 25.6 µM | MOLT-4 > 26.7 µM | OVCAR-3 > 26.7 µM | OVCAR-4 > 29.5 µM | RXF 393 25.8 µM | SF-268 1.34 µM | SK-MEL-28 > 26.2 µM | SN12C > 100 µM | UO-31 > 24.8 µM

CC(C)=CCC/C(C)=C/C=C/C(C)=C/C=C/C(C)=C/C=C/C=C(C)/C=C/C=C(C)/C=C/[C@H]1C(C(C)(C)O)CC[C@]1(C)O (stereo not given in full)
inactive: CAKI-1 33.5 µM | CCRF-CEM 15.1 µM | DU-145 16.9 µM | EKVX 40.6 µM | HOP-62 20 µM | HOP-92 12.7 µM | IGROV-1 20.2 µM | K562 21.4 µM | LOX IMVI 23.3 µM | MOLT-4 20.7 µM | OVCAR-3 18.8 µM | OVCAR-4 32.1 µM | RXF 393 17.3 µM | SF-268 19.5 µM | SF-539 29.2 µM | SK-MEL-28 20.5 µM | UO-31 20.2 µM

O=[N+]([O-])c1ccc(/N=N/N2CCCC2)cc1
inactive: CAKI-1 > 100 µM | CCRF-CEM > 100 µM | COLO 205 > 100 µM | DU-145 > 100 µM | EKVX > 100 µM | HOP-62 > 100 µM | HOP-92 > 100 µM | IGROV-1 > 100 µM | K562 > 100 µM | LOX IMVI > 100 µM | MOLT-4 > 100 µM | OVCAR-3 > 100 µM | OVCAR-4 > 100 µM | RXF 393 > 100 µM | SF-268 > 100 µM | SF-539 > 100 µM | SN12C > 100 µM | UO-31 > 100 µM
